By IC50 is commonly meant the concentration that gives 50% inhibition. Higher therefore signals lower potency. Usually Ki stands for the equilibrium dissociation constant of an inhibitor or competing ligand from its target. A higher Ki goes with weaker binding.

Assay [1] deals with T1, Androgen receptor (Homo sapiens, UniProt P10275).
T1 sequence (P10275 whole entry): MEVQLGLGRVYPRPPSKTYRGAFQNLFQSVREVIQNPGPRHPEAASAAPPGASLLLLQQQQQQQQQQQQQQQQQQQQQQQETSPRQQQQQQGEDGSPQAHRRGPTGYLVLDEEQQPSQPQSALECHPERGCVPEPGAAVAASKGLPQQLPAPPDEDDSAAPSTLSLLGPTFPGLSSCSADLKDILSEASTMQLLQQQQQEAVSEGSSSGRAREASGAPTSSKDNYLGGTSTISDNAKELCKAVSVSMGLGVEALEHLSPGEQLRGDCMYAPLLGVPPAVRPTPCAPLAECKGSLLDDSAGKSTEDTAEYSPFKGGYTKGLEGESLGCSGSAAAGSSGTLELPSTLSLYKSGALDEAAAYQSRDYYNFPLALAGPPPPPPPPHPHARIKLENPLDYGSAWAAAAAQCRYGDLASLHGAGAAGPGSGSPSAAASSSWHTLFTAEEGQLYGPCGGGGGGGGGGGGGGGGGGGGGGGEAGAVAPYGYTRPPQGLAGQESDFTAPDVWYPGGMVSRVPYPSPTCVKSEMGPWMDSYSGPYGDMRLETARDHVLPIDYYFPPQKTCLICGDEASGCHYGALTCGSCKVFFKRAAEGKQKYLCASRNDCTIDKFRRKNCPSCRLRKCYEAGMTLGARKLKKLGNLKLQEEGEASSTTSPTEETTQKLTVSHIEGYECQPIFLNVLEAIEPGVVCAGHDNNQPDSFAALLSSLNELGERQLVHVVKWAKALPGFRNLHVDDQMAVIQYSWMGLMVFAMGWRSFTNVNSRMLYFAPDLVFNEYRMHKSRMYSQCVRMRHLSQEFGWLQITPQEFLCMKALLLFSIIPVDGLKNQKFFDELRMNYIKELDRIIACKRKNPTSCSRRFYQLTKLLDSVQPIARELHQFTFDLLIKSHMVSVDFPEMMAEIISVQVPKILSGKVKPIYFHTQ
Description: Inhibition of human androgen receptor of breast carcinoma MDA-453 cells in reporter gene assay

For assay [2], the target named is T2, Androgen receptor (Homo sapiens, UniProt P10275, T878A).
Description: Inhibition of T877A androgen receptor of human prostate cancer cells in reporter gene assay
Assay [3] concerns the target T2, Androgen receptor. The assay is described as follows: Inhibition of [3H]-DHT binding to T877A androgen receptor of LNCaP cells.
Assay [4] addresses Androgen receptor (Homo sapiens, UniProt P10275, L702H/T878A). It counts as functional, cell-based. The following applies: mdamb-pca2b.
Assay [5] concerns the target T2, Androgen receptor. The assay is described as follows: Activation of T877A androgen receptor of human prostate cancer LNCap cells in reporter gene assay. It counts as functional, cell-based.
Assay [6] addresses T1, Androgen receptor. Kind of assay: Inhibition of [3H]DHT binding to androgen receptor of MDA-453 cells.

Chain of Androgen receptor (Homo sapiens, UniProt P10275, L702H/T878A) (P10275 whole entry L702H/T878A): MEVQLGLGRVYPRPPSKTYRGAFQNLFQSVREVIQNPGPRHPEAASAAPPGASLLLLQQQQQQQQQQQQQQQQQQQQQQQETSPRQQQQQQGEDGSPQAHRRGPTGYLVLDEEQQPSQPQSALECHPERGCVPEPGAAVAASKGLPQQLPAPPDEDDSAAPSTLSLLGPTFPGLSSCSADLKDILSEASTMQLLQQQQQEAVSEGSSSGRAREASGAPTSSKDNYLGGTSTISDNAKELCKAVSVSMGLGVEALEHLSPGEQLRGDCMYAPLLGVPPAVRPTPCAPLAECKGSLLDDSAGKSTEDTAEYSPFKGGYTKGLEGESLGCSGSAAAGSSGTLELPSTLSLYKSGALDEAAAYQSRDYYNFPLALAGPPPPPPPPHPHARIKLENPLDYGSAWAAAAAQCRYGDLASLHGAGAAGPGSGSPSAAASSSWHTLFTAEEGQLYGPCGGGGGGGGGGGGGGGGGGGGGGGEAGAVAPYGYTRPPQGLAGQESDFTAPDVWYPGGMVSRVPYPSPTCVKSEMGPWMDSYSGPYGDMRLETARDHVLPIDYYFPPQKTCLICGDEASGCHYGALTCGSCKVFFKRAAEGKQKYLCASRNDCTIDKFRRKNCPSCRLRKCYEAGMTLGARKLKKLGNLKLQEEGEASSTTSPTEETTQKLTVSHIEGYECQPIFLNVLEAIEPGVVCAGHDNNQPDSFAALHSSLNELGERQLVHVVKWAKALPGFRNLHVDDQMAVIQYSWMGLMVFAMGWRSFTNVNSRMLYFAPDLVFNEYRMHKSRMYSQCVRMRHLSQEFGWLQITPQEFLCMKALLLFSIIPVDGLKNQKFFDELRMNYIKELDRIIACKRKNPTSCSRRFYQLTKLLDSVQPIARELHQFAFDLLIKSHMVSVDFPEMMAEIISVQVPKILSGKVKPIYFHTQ
T2 sequence (P10275 whole entry T878A): as the sequence (P10275 whole entry L702H/T878A) above, with H702L counted along it

Consider `O=C1[C@@H]2C3C=CC(C3)[C@@H]2C(=O)N1c1ccc2cccnc2c1`, for which the IC50 on Androgen receptor [1] stood at 1040 nM; against Androgen receptor [2] it was 52 nM. This compound displayed an inhibition constant Ki on Androgen receptor [3] of 13 nM.
As for `CC(C)(O)C(=O)Nc1ccc([N+](=O)[O-])c(C(F)(F)F)c1` [HYDROXYFLUTAMIDE], the half-inhibitory concentration (IC50) entry against Androgen receptor [4] and on Androgen receptor [5] was “Agonist” throughout.
With `Cc1cc(N2C(=O)[C@@H]3C4C=CC(C4)[C@@H]3C2=O)ccc1Br`, the half-maximal inhibitory concentration (IC50) on Androgen receptor [1] was 220 nM; on Androgen receptor [4] it was “Agonist”. The Ki stood at 125 nM on Androgen receptor [6] and 3.6 nM at Androgen receptor [3]. Moreover, the “Agonist activity (qualitative)” value on Androgen receptor [5] was “Agonist”.
`O=C1[C@@H]2C3CCC(C3)[C@@H]2C(=O)N1c1ccc([N+](=O)[O-])c(C(F)(F)F)c1` (stereo in doubt; 15): the results for the half-maximal inhibitory concentration (IC50) on Androgen receptor [1] and against Androgen receptor [4] were 12 nM and “Agonist”, respectively. The figures for the Ki at Androgen receptor [6] and on Androgen receptor [3] were 5 nM and 2 nM, respectively. Moreover, the “Agonist activity (qualitative)” value on Androgen receptor [5] is “Agonist”.
Regarding `O=C1[C@@H]2C3C=CC(C3)[C@@H]2C(=O)N1c1ccc(F)c(Cl)c1`, the figures for the concentration for half-maximal inhibition (IC50) against Androgen receptor [1] and against Androgen receptor [2] were 517 nM and 33 nM, respectively. On Androgen receptor [3], this compound had a Ki of 2 nM.
As to `O=C1[C@@H]2C3C=CC(C3)[C@@H]2C(=O)N1c1cccc(C(F)(F)F)c1`, the results for the concentration for half-maximal inhibition (IC50) against Androgen receptor [1] and on Androgen receptor [2] were 744 nM and 35 nM, respectively. Further, the Ki at Androgen receptor [6] is 632 nM; at Androgen receptor [3], 7 nM.
Taken in the same sequence, the figures for `O=C1[C@@H]2C3C=CC(C3)[C@@H]2C(=O)N1c1cc(C(F)(F)F)cc(C(F)(F)F)c1` were 1750 nM, 72 nM, 401 nM and 24 nM.
For the compound `O=C1[C@@H]2C3CCC(C3)[C@@H]2C(=O)N1c1cccc(C(F)(F)F)c1` (stereo in doubt; 13), the IC50 against Androgen receptor [1] was 317 nM; against Androgen receptor [2] it was 12 nM. Also, the affinity on Androgen receptor [3] corresponds to a Ki of 2 nM.
With `O=C1[C@@H]2C3C=CC(C3)[C@@H]2C(=O)N1c1ccc([N+](=O)[O-])cc1`, the results for the IC50 against Androgen receptor [1] and on Androgen receptor [2] were 664 nM and 30 nM, respectively. Further, the Ki was found to be 192 nM on Androgen receptor [6] and 12 nM on Androgen receptor [3].
Taken in the same sequence, the figures for `O=C1[C@@H]2C3C=CC(C3)[C@@H]2C(=O)N1c1ccc2ccccc2c1` were 1210 nM, 84 nM, 284 nM and 11 nM.
Take `O=C1[C@@H]2C3C=CC(C3)[C@@H]2C(=O)N1c1ccc([N+](=O)[O-])c(C(F)(F)F)c1`: the concentration for half-maximal inhibition (IC50) against Androgen receptor [1] is 119 nM; against Androgen receptor [4], “Agonist”. In addition, the Ki on Androgen receptor [6] was determined as 55 nM; at Androgen receptor [3], 5 nM. Besides, the “Agonist activity (qualitative)” value on Androgen receptor [5] is “Agonist”.
As to `O=C1[C@@H]2C3C=CC(C3)[C@@H]2C(=O)N1c1ccc(O)c2ncccc12`, the results for the IC50 against Androgen receptor [1] and against Androgen receptor [2] were 418 nM and 1790 nM, respectively. The Ki on Androgen receptor [6] was 162 nM; at Androgen receptor [3] it was 32 nM.
On to `O=C1[C@@H]2C3CCC(C3)[C@@H]2C(=O)N1c1ccc2ccccc2c1`, for which the 50% inhibitory concentration (IC50) against Androgen receptor [1] amounted to 1200 nM; on Androgen receptor [2], 84 nM. For the same compound, the affinity at Androgen receptor [3], expressed as Ki, was 11 nM.
In turn, `O=C1[C@@H]2C3CCC(C3)[C@@H]2C(=O)N1c1ccc([N+](=O)[O-])c(C(F)(F)F)c1` (stereo in doubt; 16) had an inhibition constant Ki on Androgen receptor [3] (lncap) of 2 nM.
Take `O=C1[C@@H]2C3C=CC(C3)[C@@H]2C(=O)N1c1ccc(Br)c(C(F)(F)F)c1`: the concentration for half-maximal inhibition (IC50) against Androgen receptor [1] is 146 nM; at Androgen receptor [4] it was “Agonist”. Besides, the values for the inhibitory constant (Ki) on Androgen receptor [6] and on Androgen receptor [3] were 46 nM and 0.6 nM, respectively. Besides, at Androgen receptor [5], the “Agonist activity (qualitative)” value was “Agonist”.
`O=C1[C@@H]2C3C=CC(C3)[C@@H]2C(=O)N1c1cc(Cl)cc(Cl)c1`: the IC50 against Androgen receptor [1] came out at 307 nM; against Androgen receptor [2] it was 41 nM. The inhibition constant (Ki) was determined as 158 nM on Androgen receptor [6] and 6 nM on Androgen receptor [3].
Taken in the same sequence, the figures for `O=C1[C@@H]2C3CCC(C3)[C@@H]2C(=O)N1c1cccc(C(F)(F)F)c1` (stereo in doubt; 12) were 127 nM, 7 nM, 319 nM and 3.4 nM.
With `Cc1ccc(N2C(=O)[C@@H]3C4C=CC(C4)[C@@H]3C2=O)cc1C`, the IC50 was determined as 2010 nM on Androgen receptor [1] and 10 nM on Androgen receptor [2]. For the same compound, the Ki was 400 nM on Androgen receptor [6] and 3.4 nM on Androgen receptor [3].
With `O=C1[C@@H]2C3C=CC(C3)[C@@H]2C(=O)N1c1ccc([N+](=O)[O-])c2ccccc12`, the IC50 at Androgen receptor [1] is over 5 nM; against Androgen receptor [4], “Agonist”. Besides, the Ki was found to be 1 nM at Androgen receptor [6] and 0.5 nM at Androgen receptor [3]. Also, at Androgen receptor [5], the “Agonist activity (qualitative)” value was “Agonist”.

Values taken from ChEMBL document CHEMBL1144249, “Identification of a novel class of androgen receptor antagonists based on the bicyclic-1H-isoindole-1,3(2H)-dione nucleus” (Bioorg Med Chem Lett, 2005).
